Values quoted from earlier work as cited in patent US12201642B2, “Composition for the treatment of COVID-19” (priority 2020, dated 2025).

How the values were obtained:
HCMV = settings: cultures of smooth muscle cells

Compound: CC(=O)Oc1ccccc1C(=O)O [Aspirin, Acetylsalicylic acid]
- reduction of the yield of HCMV (factor) (HCMV): 2-3
- toxic side-effects (influenza virus; as anti-influenza agent): no toxic side-effects
- effect on influenza virus replication (influenza virus; in vitro and in vivo): efficiently blocks influenza virus replication
- antiviral effectiveness (influenza A H1N1 virus): highly effective
